Experiments:
[1] = biological target: T1, EGFR tyrosine kinase (Homo sapiens, UniProt P00533); assay: Protein tyrosine kinase phosphorylation assay, Test (a); assay type: biochemical; conditions: recombinant intracellular fragment, ATP at Km concentration; read-out: IC50 (nM) Test (a) (Inhibition of EGFR tyrosine kinase protein phosphorylation)
T1 construct: Recombinant intracellular fragments of EGFR, erbB2 and erbB4; made in house; host or cells: baculovirus/Sf21 insect cells (cleared lysate used)
T1 sequence (P00533 669-1210 limits assumed): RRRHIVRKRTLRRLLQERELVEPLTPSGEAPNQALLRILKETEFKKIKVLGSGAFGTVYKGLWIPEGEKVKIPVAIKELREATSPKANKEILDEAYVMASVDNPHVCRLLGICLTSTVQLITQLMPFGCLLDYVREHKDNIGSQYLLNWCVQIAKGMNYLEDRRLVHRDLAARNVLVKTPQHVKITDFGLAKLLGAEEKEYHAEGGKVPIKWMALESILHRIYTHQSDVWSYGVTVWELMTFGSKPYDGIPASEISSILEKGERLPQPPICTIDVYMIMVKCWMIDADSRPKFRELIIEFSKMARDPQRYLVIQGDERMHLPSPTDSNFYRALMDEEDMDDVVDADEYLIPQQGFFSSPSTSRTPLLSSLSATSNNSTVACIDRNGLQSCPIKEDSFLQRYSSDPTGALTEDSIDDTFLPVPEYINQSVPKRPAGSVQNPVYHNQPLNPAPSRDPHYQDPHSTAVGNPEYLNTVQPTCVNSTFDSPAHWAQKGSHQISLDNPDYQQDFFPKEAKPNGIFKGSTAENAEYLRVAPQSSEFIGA
Experimental: This test measures the ability of a test compound to inhibit the phosphorylation of a tyrosine containing polypeptide substrate by EGFR, erbB2 or erbB4 tyrosine kinase enzyme.
Recombinant intracellular fragments of EGFR, erbB2 and erbB4 (accession numbers X00588, X03363 and L07868 respectively) were cloned and expressed in the baculovirus/Sf21 system. Lysates were prepared from these cells by treatment with ice-cold lysis buffer (20 mM N-2-hydroxyethylpiperizine-N′-2-ethanesulfonic acid (HEPES) pH7.5, 150 mM NaCl, 10% glycerol, 1% Triton X-100, 1.5 mM MgCl2, 1 mM ethylene glycol-bis(β-aminoethyl ether) N′,N′,N′,N′-tetraacetic acid (EGTA), plus protease inhibitors and then cleared by centrifugation.
Constitutive kinase activity of these recombinant proteins was determined by their ability to phosphorylate a synthetic peptide (made up of a random co-polymer of Glutamic Acid, Alanine and Tyrosine in the ratio of 6:3:1). Specifically, Maxisorb™ 96-well immunoplates were coated with synthetic peptide (0.2 μg of peptide in a 200 μl phosphate buffered saline (PBS) solution and incubated at 4° C. overnight). Plates were washed in 50 mM HEPES pH 7.4 at room temperature to remove any excess unbound synthetic peptide. EGFR or erbB2 activities were assessed by incubation in peptide coated plates for 20 minutes at room temperature in 100 mM HEPES pH 7.4 at room temperature, adenosine trisphosphate (ATP) at Km concentration for the respective enzyme, 10 mM MnCl2, 0.1 mM Na3VO4, 0.2 mM DL-dithiothreitol (DIT), 0.1% Triton X-100 with test compound in DMSO (final concentration of 2.5%). Reactions were terminated by the removal of the liquid components of the assay followed by washing of the plates with PBS-T (phosphate buffered saline with 0.5% Tween 20).
The immobilised phospho-peptide product of the reaction was detected by immunological methods. Firstly, plates were incubated for 90 minutes at room temperature with anti-phosphotyrosine primary antibodies that were raised in the mouse (4G10 from Upstate Biotechnology). Following extensive washing, plates were treated with Horseradish Peroxidase (HRP) conjugated sheep anti-mouse secondary antibody (NXA931 from Amersham) for 60 minutes at room temperature. After further washing, HRP activity in each well of the plate was measured colorimetrically using 22′-Azino-di-[3-ethylbenzthiazoline sulfonate (6)] diammonium salt crystals (ABTS™ from Roche) as a substrate.
Quantification of colour development and thus enzyme activity was achieved by the measurement of absorbance at 405 nm on a Molecular Devices ThermoMax microplate reader. Kinase inhibition for a given compound was expressed as an IC50 value. […] The range of phosphorylation was calculated from the positive (vehicle plus ATP) and negative (vehicle minus ATP) control values.

[2] = system: KB cells; assay: EGFR driven KB cell proliferation assay, Test (b); assay type: cell-based; conditions: Homo sapiens, 96 h, EGF 1 ng/ml, incubation for 4 days, MTT
Experimental: This assay measures the ability of a test compound to inhibit the proliferation of KB cells (human naso-pharangeal carcinoma obtained from the American Type Culture Collection (ATCC)).
KB cells were cultured in Dulbecco's modified Eagle's medium (DMEM) containing 10% foetal calf serum, 2 mM glutamine and non-essential amino acids at 37° C. in a 7.5% CO2 air incubator. Cells were harvested from the stock flasks using Trypsin/ethylaminediaminetetraacetic acid EDTA). Cell density was measured using a haemocytometer and viability was calculated using trypan blue solution before being seeded at a density of 1.25×10^3 cells per well of a 96 well plate in DMEM containing 2.5% charcoal stripped serum, 1 mM glutamine and non-essential amino acids at 37° C. in 7.5% CO2 and allowed to settle for 4 hours.
Following adhesion to the plate, the cells are treated with or without EGF (final concentration of 1 ng/ml) and with or without compound at a range of concentrations in dimethylsulfoxide (DMSO) (0.1% final) before incubation for 4 days. Following the incubation period, cell numbers were determined by addition of 50 μl of 3-(4,5-Dimethylthiazol-2-yl)-2,5-diphenyltetrazolium bromide (MTT) (stock 5 mg/ml) for 2 hours. MIT solution was then tipped off, the plate gently tapped dry and the cells dissolved upon the addition of 100 μl of DMSO.
Absorbance of the solubilised cells was read at 540 nm using a Molecular Devices ThermoMax microplate reader. Inhibition of proliferation was expressed as an IC50 value. […] The range of proliferation was calculated from the positive (vehicle plus EGF) and negative (vehicle minus EGF) control values.

SMILES | IC50 [1] | IC50 [2] | melting point
COc1cc2c(Nc3cccc(Cl)c3F)ncnc2cc1OC1CCN(C(=O)C2CCC(=O)N2)CC1 (stereo not drawn) [6[5], 5-{[4-({4-[3-chloro-2-fluoroanilino]-6-methoxyquinazolin-7-yl}oxy)piperidin-1-yl]carbonyl}pyrrolidin-2-one] | 41 nM | 397 nM | 
COc1cc2c(Nc3cccc(Cl)c3F)ncnc2cc1OC1CN(C(=O)[C@H](C)O)C1 [Example 3] | 17 nM | 71 nM | 
COc1cc2c(Nc3cccc(Cl)c3F)ncnc2cc1OC1CN(C(=O)[C@@H](C)O)C1 [Example 4, (2R)-1-[3-({4-[3-Chloro-2-fluoroanilino]-6-methoxyquinazolin-7-yl}oxy)azetidin-1-yl]-1-oxopropan-2-ol] | 8 nM | 48 nM | 
COCC(=O)N1CC[C@@H](Oc2cc3ncnc(Nc4cccc(Cl)c4F)c3cc2OC)C1 [Example 5, N-(3-Chloro-2-fluorophenyl)-6-methoxy-7-{[(3R)-1-(methoxyacetyl)pyrrolidin-3-yl]oxy}quinazolin-4-amine] | 217 nM | 119 nM | 73 to 77 °C

Reference: patent publication US20070032513A1, “Quinazoline derivatives” (priority 2003, published 2007)
